Data from patent publication US20260215428A1, “WEED CONTROL METHOD” (SYNGENTA CROP PROTECTION AG, priority 2023, published 2026).

Key:
Type in all cases: in vivo
Eleusine indica = test: Glasshouse post-emergence test, visual damage, Tables B1-2 and B1-3; settings: 14 days after application
Description: Seeds of a variety of test species are sown in standard soil in pots. For each treatment, three replicate pots containing 10-15 plants per one-inch pot were sprayed at the 2-3 leaf stage. […] The test plants are then grown in a glasshouse under controlled conditions in a glasshouse (at 24/16° C., day/night; 14 hours light; 65% humidity) and watered twice daily. Plants were assessed for visual damage compared to the untreated control 14 days after application (0=0% damage; 100=100% damage).

Digitaria sanguinalis = test: Glasshouse post-emergence test, visual damage, Table B1-4; settings: 14 days after application
Description: Seeds of a variety of test species are sown in standard soil in pots. For each treatment, three replicate pots containing 10-15 plants per one-inch pot were sprayed at the 2-3 leaf stage. Clethodim and Compound (Ic) were each applied at 15, 30, 60 and 120 g ai/ha. The test plants are then grown in a glasshouse under controlled conditions in a glasshouse (at 24/16° C., day/night; 14 hours light; 65% humidity) and watered twice daily. Plants were assessed for visual damage compared to the untreated control 14 days after application (0=0% damage; 100=100% damage).

Volunteer corn = test: 26 field trials, control of volunteer corn, Table B1-6
Lolium multiflorum = test: Further glasshouse test versus other ACCase-inhibiting herbicides, Table B2-1; settings: 21 days after application
From the text: Further tests were employed to test the efficacy of a compound of Formula I versus other ACCase-inhibiting herbicides. The five main targets were Lolium multiflorum, Eleusine indica, Digitaria insularis, Sorghum halepense and Echinochloa crus-galli. Collectively, the populations contained all the major target-site resistance mutations affecting ACCase herbicides. Two L. multiflorum (LM-NTSR-1 and LM-NTSR-2) and one E. crus-galli (ECG-NTSR-1) populations were characterised exclusively by non-target-site resistance (“NTSR”). The target-site resistant L. multiflorum and E. indication populations were 100% homozygous for different ACCase mutations whilst the D. insularis, S. halepense and E. crus-galli samples contained a mixture of homozygous wild and mutant individuals at different genotypic frequencies. Additional underlying NTSR cannot be ruled out in the populations characterised by target-site resistance.
Around 50 seeds of each of the 24 weed populations were sown in 12-cm pots containing a mixture of peat and compost in a 1:1 ratio. The pots were watered, fertilised and kept in controlled glasshouse conditions set at 24° C./16 hr day, 18° C. night, 65% relative humidity, and a photon flux density of approximately 250 μmol quanta m^−2 s^−1 for Lolium multiflorum. The E. indica, D. insularis, S. halepense and E. crus-galli plants were kept in a separate glasshouse bay characterised by a 17 H photoperiod of 180 μmol m^−2 s^−1 with temperatures of 25° C. day and 19° C. night and 65% relative humidity. When the plants were at the two to four-leaf stage, they were treated with the various ACCase-inhibiting herbicides at 0, 15, 30, 60, 120 and 240 g ai ha^−1 in a spray cabinet mounted with a single mobile Teejet flat fan nozzle (11002VS) calibrated to deliver 200 L ha^−1 at 200 kPa. The L. multiflorum populations were treated by a compound of Formula Ic, clodinafop-propargyl, pinoxaden, cycloxydim and clethodim and the warm season grass weeds E. indica, D. insularis, S. halepense and E. crus-galli were sprayed with a Compound Ic and the commonly employed haloxyfop-methyl and clethodim. Three replicate pots were used per population. Plants were assessed for visual damage compared to the untreated control 21 days after application (0=0% damage; 100=100% damage).

CC#Cc1ccc(C2=C(OC(=O)OC)C3CCC(C3)C2=O)c(OC)c1 (centres unmarked) [Compound Ic]
99%: Control (28d) (Volunteer corn; 25 g/ha) | Control (14d) (Volunteer corn; 50 g/ha) | Control (14d) (Volunteer corn; 100 g/ha) | Control (14d) (Volunteer corn; 200 g/ha)
85%: visual damage (Lolium multiflorum; biotype W1999S, 15 g/ha)
87%: visual damage (Eleusine indica; Table B1-2, biotype D2078G + W2027C (heterozygous), first entry, 15 g/ha) | visual damage (Lolium multiflorum; population LM-NTSR-2 (non-target-site resistance), 60 g/ha)
48%: visual damage (Lolium multiflorum; population LM-NTSR-2 (non-target-site resistance), 15 g/ha)
60%: visual damage (Eleusine indica; Table B1-2, biotype NTSR (non-target site resistance), 4 g/ha)
100%: visual damage (Eleusine indica; Table B1-2, biotype 87% I1781L (heterozygous), 30 g/ha) | visual damage (Eleusine indica; Table B1-2, biotype 87% I1781L (heterozygous), 60 g/ha) | visual damage (Eleusine indica; Table B1-2, biotype 87% I1781L (heterozygous), 120 g/ha) | visual damage (Eleusine indica; Table B1-2, biotype D2078G + W2027C (heterozygous), first entry, 30 g/ha) | visual damage (Eleusine indica; Table B1-2, biotype D2078G + W2027C (heterozygous), first entry, 60 g/ha) | visual damage (Eleusine indica; Table B1-2, biotype D2078G + W2027C (heterozygous), first entry, 120 g/ha) | visual damage (Eleusine indica; Table B1-2, biotype D2078G + W2027C (heterozygous), second entry, 30 g/ha) | visual damage (Eleusine indica; Table B1-2, biotype D2078G + W2027C (heterozygous), second entry, 60 g/ha) | visual damage (Eleusine indica; Table B1-2, biotype D2078G + W2027C (heterozygous), second entry, 120 g/ha) | visual damage (Eleusine indica; Table B1-2, biotype I2041N (heterozygous), 30 g/ha) | visual damage (Eleusine indica; Table B1-2, biotype I2041N (heterozygous), 60 g/ha) | visual damage (Eleusine indica; Table B1-2, biotype I2041N (heterozygous), 120 g/ha) | visual damage (Eleusine indica; Table B1-2, biotype Sensitive, 15 g/ha) | visual damage (Eleusine indica; Table B1-2, biotype Sensitive, 30 g/ha) | visual damage (Eleusine indica; Table B1-2, biotype Sensitive, 60 g/ha) | visual damage (Eleusine indica; Table B1-2, biotype Sensitive, 120 g/ha) | visual damage (Eleusine indica; Table B1-3, Pop1 (mix of sensitive, D2078G and G2096A biotypes), 30 g/ha) | visual damage (Eleusine indica; Table B1-3, Pop1 (mix of sensitive, D2078G and G2096A biotypes), 60 g/ha) | visual damage (Eleusine indica; Table B1-3, Pop1 (mix of sensitive, D2078G and G2096A biotypes), 120 g/ha) | visual damage (Eleusine indica; Table B1-3, Pop2 (mix of sensitive, D2078G and G2096A biotypes), 30 g/ha) | visual damage (Eleusine indica; Table B1-3, Pop2 (mix of sensitive, D2078G and G2096A biotypes), 60 g/ha) | visual damage (Eleusine indica; Table B1-3, Pop2 (mix of sensitive, D2078G and G2096A biotypes), 120 g/ha) | visual damage (Eleusine indica; Table B1-3, biotype Sensitive, 15 g/ha) | visual damage (Eleusine indica; Table B1-3, biotype Sensitive, 30 g/ha) | visual damage (Eleusine indica; Table B1-3, biotype Sensitive, 60 g/ha) | visual damage (Eleusine indica; Table B1-3, biotype Sensitive, 120 g/ha) | visual damage (Digitaria sanguinalis; biotype I1781L (heterozygous), 60 g/ha) | visual damage (Digitaria sanguinalis; biotype I1781L (heterozygous), 120 g/ha) | visual damage (Digitaria sanguinalis; biotype Sensitive, 30 g/ha) | visual damage (Digitaria sanguinalis; biotype Sensitive, 60 g/ha) | visual damage (Digitaria sanguinalis; biotype Sensitive, 120 g/ha) | Control (28d) (Volunteer corn; 50 g/ha) | Control (28d) (Volunteer corn; 100 g/ha) | Control (28d) (Volunteer corn; 200 g/ha) | visual damage (Lolium multiflorum; biotype C2088R, 15 g/ha) | visual damage (Lolium multiflorum; biotype C2088R, 30 g/ha) | visual damage (Lolium multiflorum; biotype C2088R, 60 g/ha) | visual damage (Lolium multiflorum; biotype C2088R, 120 g/ha) | visual damage (Lolium multiflorum; biotype C2088R, 240 g/ha) | visual damage (Lolium multiflorum; biotype D2078G, 60 g/ha) | visual damage (Lolium multiflorum; biotype D2078G, 120 g/ha) | visual damage (Lolium multiflorum; biotype D2078G, 240 g/ha) | visual damage (Lolium multiflorum; biotype I1781L, 15 g/ha) | visual damage (Lolium multiflorum; biotype I1781L, 30 g/ha) | visual damage (Lolium multiflorum; biotype I1781L, 60 g/ha) | visual damage (Lolium multiflorum; biotype I1781L, 120 g/ha) | visual damage (Lolium multiflorum; biotype I1781L, 240 g/ha) | visual damage (Lolium multiflorum; biotype Sensitive, 15 g/ha) | visual damage (Lolium multiflorum; biotype Sensitive, 30 g/ha) | visual damage (Lolium multiflorum; biotype Sensitive, 60 g/ha) | visual damage (Lolium multiflorum; biotype Sensitive, 120 g/ha) | visual damage (Lolium multiflorum; biotype Sensitive, 240 g/ha) | visual damage (Lolium multiflorum; biotype W1999S, 30 g/ha) | visual damage (Lolium multiflorum; biotype W1999S, 60 g/ha) | visual damage (Lolium multiflorum; biotype W1999S, 120 g/ha) | visual damage (Lolium multiflorum; biotype W1999S, 240 g/ha) | visual damage (Lolium multiflorum; biotype W2027C, 30 g/ha) | visual damage (Lolium multiflorum; biotype W2027C, 60 g/ha) | visual damage (Lolium multiflorum; biotype W2027C, 120 g/ha) | visual damage (Lolium multiflorum; biotype W2027C, 240 g/ha) | visual damage (Lolium multiflorum; population LM-NTSR-1 (non-target-site resistance), 30 g/ha) | visual damage (Lolium multiflorum; population LM-NTSR-1 (non-target-site resistance), 60 g/ha) | visual damage (Lolium multiflorum; population LM-NTSR-1 (non-target-site resistance), 120 g/ha) | visual damage (Lolium multiflorum; population LM-NTSR-1 (non-target-site resistance), 240 g/ha) | visual damage (Lolium multiflorum; population LM-NTSR-2 (non-target-site resistance), 120 g/ha) | visual damage (Lolium multiflorum; population LM-NTSR-2 (non-target-site resistance), 240 g/ha)
82%: visual damage (Lolium multiflorum; population LM-NTSR-2 (non-target-site resistance), 30 g/ha)
98%: visual damage (Eleusine indica; Table B1-3, Pop1 (mix of sensitive, D2078G and G2096A biotypes), 15 g/ha)
83%: visual damage (Eleusine indica; Table B1-2, biotype D2078G + W2027C (heterozygous), second entry, 15 g/ha)
88%: visual damage (Lolium multiflorum; biotype W2027C, 15 g/ha)
70%: visual damage (Eleusine indica; Table B1-2, biotype I2041N (heterozygous), 15 g/ha)
73%: visual damage (Eleusine indica; Table B1-2, biotype NTSR (non-target site resistance), 8 g/ha) | visual damage (Digitaria sanguinalis; biotype I1781L (heterozygous), 15 g/ha)
20%: visual damage (Eleusine indica; Table B1-2, biotype NTSR (non-target site resistance), 1 g/ha) | visual damage (Lolium multiflorum; biotype D2078G, 15 g/ha)
40%: visual damage (Eleusine indica; Table B1-2, biotype NTSR (non-target site resistance), 2 g/ha)
86%: visual damage (Eleusine indica; Table B1-3, Pop2 (mix of sensitive, D2078G and G2096A biotypes), 15 g/ha)
93%: Control (14d) (Volunteer corn; 25 g/ha) | visual damage (Lolium multiflorum; population LM-NTSR-1 (non-target-site resistance), 15 g/ha)
97%: visual damage (Eleusine indica; Table B1-2, biotype 87% I1781L (heterozygous), 15 g/ha)
90%: visual damage (Digitaria sanguinalis; biotype I1781L (heterozygous), 30 g/ha) | visual damage (Digitaria sanguinalis; biotype Sensitive, 15 g/ha) | visual damage (Lolium multiflorum; biotype D2078G, 30 g/ha)
